Experimental data as given in US9237747B2, “Herbicidal compositions comprising 4-amino-3-chloro-5-fluoro-6-(4-chloro-2-fluoro-3-methoxyphenyl) pyridine-2-carboxylic acid or a derivative thereof and insecticides” (priority 2013, dated 2016).
Where two headings read alike, the source gives them in different places.

Legend:
[1] = test system: IPOHE; format: in vivo, Ipomoea hederacea
Experimental: (§1) Seeds or nutlets of the desired test plant species were planted in a soil matrix prepared by mixing a loam or sandy loam soil (e.g., 28.6 percent silt, 18.8 percent clay, and 52.6 percent sand, with a pH of about 5.8 and an organic matter content of about 1.8 percent) and calcareous grit in an 80 to 20 ratio. The soil matrix was contained in plastic pots with a volume of 1 quart and a surface area of 83.6 square centimeters (cm^2). […] The plants were grown for 8-22 days in a greenhouse with an approximate 14 hour (h) photoperiod which was maintained at about 29° C. during the day and 26° C. during the night. Nutrients (Peters Excel® 15-5-15 5-Ca 2-Mg and iron chelate) were applied in the irrigation solution as needed and water was added on a regular basis. Supplemental lighting was provided with overhead metal halide 1000-Watt lamps as necessary. The plants were employed for testing when they reached the first through fourth true leaf stage.
(§2) Treatments consisted of the acid or esters of 4-amino-3-chloro-6-(4-chloro-2-fluoro-3-methoxyphenyl)-5-fluoropyridine-2-carboxylic acid (Compound A), each formulated as an SC (suspension concentrate), and various insecticidal components alone and in combination. Forms of compound A were applied on an acid equivalent basis.
(§3) For treatments comprised of formulated compounds, measured amounts of compounds were placed individually in 25 mL glass vials and diluted in a volume of 1.25% volume per volume (v/v) Agri-Dex® crop oil concentrate to obtain 12× stock solutions. […] Application solutions were prepared by adding an appropriate amount of each stock solution (e.g., 1 mL) and diluted to the appropriate final concentrations with the addition of […] of an aqueous mixture of 1.25% (v/v) crop oil concentrate so that the final spray solutions contained 1.25+/−0.05% (v/v) crop oil concentrate.
(§4) As required, additional water and/or 97:3 v/v acetone/DMSO was added to individual application solutions so that the final acetone and DMSO concentrations of the application solutions being compared were 8.1% and 0.25%, respectively.
(§5) All stock solutions and applications solutions were visually inspected for compound compatibility prior to application. Spray solutions were applied to the plant material with an overhead Mandel track sprayer equipped with 8002E nozzles calibrated to deliver 187 L/ha over an application area of 0.503 square meters (m^2) at a spray height of 18 to 20 inches (46 to 50 cm) above average plant canopy height. Control plants were sprayed in the same manner with the solvent blank.
(§6) The treated plants and control plants were placed in a greenhouse as described above and watered by sub-irrigation to prevent wash-off of the test compounds. After approximately 3 weeks, the condition of the test plants as compared to that of the untreated plants was determined visually and scored on a scale of 0 to 100 percent where 0 corresponds to no injury or growth inhibition and 100 corresponds to complete kill.
(§7) Colby's equation was used to determine the herbicidal effects expected from the mixtures (Colby, S. R. Calculation of the synergistic and antagonistic response of herbicide combinations. Weeds 1967, 15, 20-22.).
(§8) The following equation was used to calculate the expected activity of mixtures containing two active ingredients, A and B: Expected=A+B−(A×B/100)

[2] = test system: ECHCG; format: in vivo, Echinochloa crus-galli
Experimental: as §1, §2, §3, §4, §5, §6, §7, §8

[3] = test system: DIGSA; format: in vivo, Digitaria sanguinalis
Experimental: as §1, §2, §3, §4, §5, §6, §7, §8

[4] = test system: LEFCH; experiment: whole plant or invertebrate; format: in vivo, Leptochloa chinensis
Experimental: as §1, §2, §3, §4, §5, §6, §7, §8

[5] = test system: BRAPP; experiment: Postemergence foliar-applied weed control, direct-seeded rice (greenhouse); format: in vivo, Brachiaria platyphylla
Description: (§9) Seeds or nutlets of the desired test plant species were planted in a soil matrix prepared by mixing a loam or sandy loam soil (e.g., 28.6 percent silt, 18.8 percent clay, and 52.6 percent sand, with a pH of about 5.8 and an organic matter content of about 1.8 percent) and calcareous grit in an 80 to 20 ratio. The soil matrix was contained in plastic pots with a volume of 1 quart and a surface area of 83.6 square centimeters (cm^2). When required to ensure good germination and healthy plants, a fungicide treatment and/or other chemical or physical treatment was applied. The plants were grown for 8-22 days in a greenhouse with an approximate 14 hour (h) photoperiod which was maintained at about 29° C. during the day and 26° C. during the night. Nutrients (Peters Excel® 15-5-15 5-Ca 2-Mg and iron chelate) were applied in the irrigation solution as needed and water was added on a regular basis. Supplemental lighting was provided with overhead metal halide 1000-Watt lamps as necessary. The plants were employed for testing when they reached the first through fourth true leaf stage.
as §2
(§10) Treatment requirements were calculated based upon the rates being tested, the concentration of active ingredient or acid equivalent in the formulation, and a 12 milliliter (mL) application volume at a rate of 187 liters per hectare (L/ha).
as §3, §4, §5, §6, §7, §8

[6] = test system: CYPIR; format: in vivo, Cyperus iria
Description: as §9, §2, §10, §3, §4, §5, §6, §7, §8

[7] = test system: CYPES; format: in vivo, Cyperus esculentus
Experimental: as §1, §2, §3, §4, §5, §6, §7, §8

CC1(C)C(C=C(Cl)Cl)C1C(=O)OC(C#N)c1cccc(Oc2ccccc2)c1 (racemic) [Cypermethrin, (RS)-α-cyano-3-phenoxybenzyl(1RS)-cis-trans-3-(2,2-dichlorovinyl)-2,2-dimethylcyclopropanecarboxylate, reference compound]
Visual Weed Control (%) - 22 DAA IPOHE Obs ([1]; 7.5 g ai/ha alone): 0% | Visual Weed Control (%) - 22 DAA IPOHE Obs ([1]; 22.5 g ai/ha alone): 0% | Visual Weed Control (%) - 22 DAA IPOHE Obs ([1]; 60 g ai/ha alone): 0% | Visual Weed Control (%) - 22 DAA ECHCG Obs ([2]; 7.5 g ai/ha alone): 0% | Visual Weed Control (%) - 22 DAA ECHCG Obs ([2]; 22.5 g ai/ha alone): 0% | Visual Weed Control (%) - 22 DAA ECHCG Obs ([2]; 60 g ai/ha alone): 0% | Visual Weed Control (%) - 21 DAA DIGSA Obs ([3]; 15 g ai/ha alone): 0% | Visual Weed Control (%) - 21 DAA DIGSA Obs ([3]; 30 g ai/ha alone): 0% | Visual Weed Control (%) - 21 DAA DIGSA Obs ([3]; 60 g ai/ha alone): 0% | pest or weed control at […] ([4]; Dinebra chinensis, post-emergence, 528 h, 7.5 g ai/ha alone, read-out: Visual Weed Control (%) - 22 DAA LEFCH Obs): 0% | pest or weed control at 22.5 g/ha ([4]; Dinebra chinensis, post-emergence, 528 h, 22.5 g ai/ha alone, read-out: Visual Weed Control (%) - 22 DAA LEFCH Obs): 0% | pest or weed control at 60 g/ha ([4]; Dinebra chinensis, post-emergence, 528 h, 60 g ai/ha alone, read-out: Visual Weed Control (%) - 22 DAA LEFCH Obs): 0%

CC1(C)[C@H](C(=O)O[C@H](C#N)c2cccc(Oc3ccccc3)c2)[C@@H]1/C=C(\Cl)C(F)(F)F (racemic) [Lambda cyhalothrin]
Visual Weed Control (%) - 21 DAA IPOHE Obs ([1]; 21 DAA, 35 g ai/ha alone): 0% | Visual Weed Control (%) - 21 DAA ECHCG Obs ([2]; 21 DAA, 35 g ai/ha alone): 0%

COP(=O)(NC(C)=O)SC (stereo not drawn) [Acephate, O,S-dimethyl acetylphosphoramidothioate]
Visual Weed Control (%) - 21 DAA IPOHE Obs ([1]; 280 g ai/ha alone): 10% | Visual Weed Control (%) - 21 DAA BRAPP Obs ([5]; 140 g ai/ha alone): 0% | Visual Weed Control (%) - 21 DAA BRAPP Obs ([5]; 280 g ai/ha alone): 0% | Visual Weed Control (%) - 21 DAA BRAPP Obs ([5]; 560 g ai/ha alone): 0% | Visual Weed Control (%) - 21 DAA CYPIR Obs ([6]; 140 g ai/ha alone): 0% | Visual Weed Control (%) - 21 DAA CYPIR Obs ([6]; 280 g ai/ha alone): 0% | Visual Weed Control (%) - 21 DAA CYPIR Obs ([6]; 560 g ai/ha alone): 0%

CNC(=O)Oc1cccc2ccccc12 [Carbaryl, 1-naphthalenyl N-methylcarbamate]
Visual Weed Control (%) - 20 DAA IPOHE Obs ([1]; 6 g ai/ha alone): 0% | Visual Weed Control (%) - 20 DAA IPOHE Obs ([1]; 12 g ai/ha alone): 10% | Visual Weed Control (%) - 20 DAA ECHCG Obs ([2]; 3 g ai/ha alone): 0% | Visual Weed Control (%) - 20 DAA ECHCG Obs ([2]; 6 g ai/ha alone): 0% | Visual Weed Control (%) - 20 DAA ECHCG Obs ([2]; 12 g ai/ha alone): 0% | Visual Weed Control (%) - 20 DAA DIGSA Obs ([3]; 3 g ai/ha alone): 0% | Visual Weed Control (%) - 20 DAA DIGSA Obs ([3]; 6 g ai/ha alone): 0% | Visual Weed Control (%) - 20 DAA DIGSA Obs ([3]; 12 g ai/ha alone): 0% | Visual Weed Control (%) - 20 DAA DIGSA Obs ([3]; 24 g ai/ha alone): 0% | Visual Weed Control (%) - 20 DAA DIGSA Obs ([3]; 48 g ai/ha alone): 0% | Visual Weed Control (%) - 20 DAA DIGSA Obs ([3]; 96 g ai/ha alone): 0% | Visual Weed Control (%) - 20 DAA CYPES Obs ([7]; 24 g ai/ha alone): 0% | Visual Weed Control (%) - 20 DAA CYPES Obs ([7]; 48 g ai/ha alone): 0% | Visual Weed Control (%) - 20 DAA CYPES Obs ([7]; 96 g ai/ha alone): 0% | Visual Weed Control (%) - 20 DAA LEFCH Obs ([4]; 3 g ai/ha alone): 0% | Visual Weed Control (%) - 20 DAA LEFCH Obs ([4]; 6 g ai/ha alone): 0% | Visual Weed Control (%) - 20 DAA LEFCH Obs ([4]; 12 g ai/ha alone): 0% | Visual Weed Control (%) - 20 DAA BRAPP Obs ([5]; 3 g ai/ha alone): 0% | Visual Weed Control (%) - 20 DAA BRAPP Obs ([5]; 6 g ai/ha alone): 0% | Visual Weed Control (%) - 20 DAA BRAPP Obs ([5]; 12 g ai/ha alone): 0% | Visual Weed Control (%) - 20 DAA CYPIR Obs ([6]; 3 g ai/ha alone): 0% | Visual Weed Control (%) - 20 DAA CYPIR Obs ([6]; 6 g ai/ha alone): 0% | Visual Weed Control (%) - 20 DAA CYPIR Obs ([6]; 12 g ai/ha alone): 0%

CNC(=O)Oc1cccc2c1OC(C)(C)C2 [Carbofuran, 2,3-dihydro-2,2-dimethylbenzofuran-7-yl methylcarbamate]
Visual Weed Control (%) - 21 DAA IPOHE Obs ([1]; 500 g ai/ha alone): 0% | Visual Weed Control (%) - 20 DAA CYPES Obs ([7]; 125 g ai/ha alone): 0% | Visual Weed Control (%) - 20 DAA CYPES Obs ([7]; 250 g ai/ha alone): 0% | Visual Weed Control (%) - 21 DAA LEFCH Obs ([4]; 500 g ai/ha alone): 0%
